Patent US7101878B1 (Agouron Pharmaceuticals, Inc., priority 1998, dated 2006)

Each molecule was assayed against T1, mouse GnRH receptor (Mus musculus, UniProt Q01776) (assay: Radioligand binding, 125I-GnRH-A, 293 cells expressing mouse GnRH receptors). Settings: 10 uM; read-out: % Inhib. @ 10 uM mGnRH.
T1 construct: expressed in transfected cells; host or cells: 293 cells
T1 sequence (Q01776 1-327): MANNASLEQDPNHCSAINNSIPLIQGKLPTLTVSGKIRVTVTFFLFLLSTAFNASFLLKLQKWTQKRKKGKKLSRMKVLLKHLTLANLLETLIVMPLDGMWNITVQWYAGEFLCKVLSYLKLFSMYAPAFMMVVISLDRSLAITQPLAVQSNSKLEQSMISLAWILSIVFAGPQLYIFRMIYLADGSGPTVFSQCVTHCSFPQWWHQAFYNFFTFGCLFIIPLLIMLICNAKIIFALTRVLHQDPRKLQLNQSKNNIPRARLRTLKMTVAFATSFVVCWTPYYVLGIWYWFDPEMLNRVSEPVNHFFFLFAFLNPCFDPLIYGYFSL
In short: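 Bound label captured on 0.1% polyethyleneimine-treated GF/C filters, washed three times with PBS, counted. IC50 derived; identical set-up for every species.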

Compared with `CCCN(C(=O)c1ccc(Cc2cc3c(cc2C)C(C)(C)CCC3(C)C)o1)C(C)CC` (stereo not drawn), `CCN(CC)CCN(CC)C(=O)c1ccc(Cc2cc3c(cc2C)C(C)(C)CCC3(C)C)o1` is higher in inhibition at 10 µM: 94% for the first, 98% for the second.

First: Cc1ccc(N2CCN(C(=O)c3ccc(Cc4cc5c(cc4C)C(C)(C)CCC5(C)C)o3)CC2)cc1C
Second: Cc1cc2c(cc1Cc1ccc(C(=O)N3CCN(Cc4ccc5c(c4)OCO5)CC3)o1)C(C)(C)CCC2(C)C
The inhibition at 10 µM of the first is higher: 75% for the first, 66% for the second.

First: CCOC(=O)CN(Cc1ccccc1)C(=O)c1ccc(Cc2cc3c(cc2C)C(C)(C)CCC3(C)C)o1 [drawing 1494]
Second: Cc1cc2c(cc1Cc1ccc(C(=O)N(CCc3ccccc3)Cc3ccoc3)o1)C(C)(C)CCC2(C)C [drawing 1557]
The inhibition at 10 µM of the first is higher: 62% for the first, 61% for the second.

Going from `Cc1cc2c(cc1Cc1ccc(C(=O)N3CCC(C(=O)c4ccc(F)cc4)CC3)o1)C(C)(C)CCC2(C)C` [drawing 1467] to `Cc1cc2c(cc1Cc1ccc(C(=O)N3CCCCC3C)o1)C(C)(C)CCC2(C)C` (stereo not drawn), the inhibition at 10 µM rises from 63% to 100%.

Going from `Cc1cc2c(cc1Cc1ccc(C(=O)NCCc3ccc(Br)cc3)o1)C(C)(C)CCC2(C)C` [drawing 1371] to `Cc1cc2c(cc1Cc1ccc(C(=O)NCCCO)o1)C(C)(C)CCC2(C)C` [drawing 1417], the inhibition at 10 µM rises from 47% to 96%.

First: Cc1cc2c(cc1Cc1ccc(C(=O)N[C@@H](C)C(O)c3ccccc3)o1)C(C)(C)CCC2(C)C (stereo partly drawn)
Second: Cc1cc2c(cc1Cc1ccc(C(=O)NCC(O)c3ccccc3)o1)C(C)(C)CCC2(C)C (stereo not drawn) [drawing 1470]
The inhibition at 10 µM of the first is lower: 63% for the first, 101% for the second.

Compared with `CSc1ccc(CN(CCc2ccccn2)C(=O)c2ccc(Cc3cc4c(cc3C)C(C)(C)CCC4(C)C)o2)cc1`, `Cc1cc2c(cc1Cc1ccc(C(=O)N(Cc3ccncc3)Cc3ccc4c(c3)OCO4)o1)C(C)(C)CCC2(C)C` is higher in inhibition at 10 µM: 75% for the first, 91% for the second.

Compared with `Cc1cc2c(cc1Cc1ccc(C(=O)NC(C)CO)o1)C(C)(C)CCC2(C)C` (stereo not drawn) [drawing 1241], `Cc1cc2c(cc1Cc1ccc(C(=O)NC(C)C3CCCCC3)o1)C(C)(C)CCC2(C)C` (stereo not drawn) [drawing 1463] is lower in inhibition at 10 µM: 82% for the first, 72% for the second.

First: Cc1cc2c(cc1Cc1ccc(C(=O)N3CCN(C/C=C/c4ccccc4)CC3)o1)C(C)(C)CCC2(C)C
Second: Cc1cc2c(cc1Cc1ccc(C(=O)N3CCN(CCc4ccccc4)CC3)o1)C(C)(C)CCC2(C)C
The inhibition at 10 µM of the first is lower: 86% for the first, 97% for the second.

Compared with `Cc1cc2c(cc1Cc1ccc(C(=O)N3CCN(C(c4ccccc4)c4ccccc4)CC3)o1)C(C)(C)CCC2(C)C`, `Cc1cc2c(cc1Cc1ccc(C(=O)N(C)CCC=C3c4ccccc4CCc4ccccc43)o1)C(C)(C)CCC2(C)C` [drawing 1472] is higher in inhibition at 10 µM: 33% for the first, 58% for the second.

Compared with `Cc1cc2c(cc1Cc1ccc(C(=O)N(CCN(C)C)Cc3ccccc3[N+](=O)[O-])o1)C(C)(C)CCC2(C)C` [drawing 1491], `Cc1cc2c(cc1Cc1ccc(C(=O)NCCCN(C)C)o1)C(C)(C)CCC2(C)C` is lower in inhibition at 10 µM: 103% for the first, 99% for the second.

Compared with `CCN(CC)CCCC(C)N(Cc1ccc(F)cc1)C(=O)c1ccc(Cc2cc3c(cc2C)C(C)(C)CCC3(C)C)o1` (stereo not drawn), `CCN1CC(N(CCC(C)c2ccccc2)C(=O)c2ccc(Cc3cc4c(cc3C)C(C)(C)CCC4(C)C)o2)CN1CC` (stereo not drawn) [drawing 1568] is lower in inhibition at 10 µM: 102% for the first, 95% for the second.

First: Cc1cc2c(cc1Cc1ccc(C(=O)NC3CCCC3)o1)C(C)(C)CCC2(C)C
Second: Cc1cc2c(cc1Cc1ccc(C(=O)N(C)C3CCCC3)o1)C(C)(C)CCC2(C)C
The inhibition at 10 µM of the first is lower: 73% for the first, 100% for the second.

Compared with `Cc1cc2c(cc1Cc1ccc(C(=O)NC3(CO)CCCC3)o1)C(C)(C)CCC2(C)C` [drawing 1464], `Cc1cc2c(cc1Cc1ccc(C(=O)NCCC3=CCCCC3)o1)C(C)(C)CCC2(C)C` [drawing 1448] is lower in inhibition at 10 µM: 98% for the first, 84% for the second.

In the case of `Cc1cc2c(cc1Cc1ccc(C(=O)N(CC#N)CC#N)o1)C(C)(C)CCC2(C)C`, the inhibition at 10 µM is reported as 64%.

Same assay, conditions: 1 h, substrate remaining; 10 uM compound; closer to zero = closer to 100% inhibition; read-out: S%R 10 uM mGnRHR

Compared with `Cc1cc2c(cc1Cc1ccc(C(=O)NCc3ccc(-c4csnn4)cc3)o1)C(C)(C)CCC2(C)C` [Compound 478], `Cc1cnc(CNC(=O)c2ccc(Cc3cc4c(cc3C)C(C)(C)CCC4(C)C)o2)cn1` [Compound 525] is lower in remaining activity at 10 µM: 3% for the first, -9% for the second.

`Cc1cc2c(cc1Cc1ccc(C(=O)N(C)CCCN(C)C)o1)C(C)(C)CCC2(C)C` [Compound 608] and `Cc1cc2c(cc1Cc1ccc(C(=O)NC(C)CN(C)C)o1)C(C)(C)CCC2(C)C` (stereo not drawn) [Compound 625] are the same in remaining activity at 10 µM: 8% for the first, 8% for the second.

First: Cc1cc2c(cc1Cc1ccc(C(=O)NCCCNCCCCNCCCN)o1)C(C)(C)CCC2(C)C [Compound 472]
Second: CCCNC(=O)c1ccc(Cc2cc3c(cc2C)C(C)(C)CCC3(C)C)o1 [Compound 687]
The remaining activity at 10 µM of the first is higher: 42% for the first, 7% for the second.

Going from `CC(=O)NCCNC(=O)c1ccc(Cc2cc3c(cc2C)C(C)(C)CCC3(C)C)o1` [Compound 476] to `C=C(C)CNC(=O)c1ccc(Cc2cc3c(cc2C)C(C)(C)CCC3(C)C)o1` [Compound 624], the remaining activity at 10 µM falls from 20% to 8%.

First: Cc1cc2c(cc1Cc1ccc(C(=O)NCCCn3ccnc3)o1)C(C)(C)CCC2(C)C [Compound 468]
Second: CCC(CC)NC(=O)c1ccc(Cc2cc3c(cc2C)C(C)(C)CCC3(C)C)o1 [Compound 666]
The remaining activity at 10 µM of the first is lower: -10% for the first, 24% for the second.

First: Cc1cc2c(cc1Cc1ccc(C(=O)N3CCC(O)CC3)o1)C(C)(C)CCC2(C)C [Compound 641]
Second: CC(=O)N1CCCN(C(=O)c2ccc(Cc3cc4c(cc3C)C(C)(C)CCC4(C)C)o2)CC1 [Compound 599]
The remaining activity at 10 µM of the first is lower: 23% for the first, 28% for the second.

Going from `Cc1cc2c(cc1Cc1ccc(C(=O)N(Cc3ccco3)C3CCN(Cc4ccccc4)C3)o1)C(C)(C)CCC2(C)C` (stereo not drawn) [Compound 681] to `Cc1cc2c(cc1Cc1ccc(C(=O)N(Cc3cccnc3)Cc3ccco3)o1)C(C)(C)CCC2(C)C` [Compound 665], the remaining activity at 10 µM rises from 6% to 12%.

First: Cc1cc2c(cc1Cc1ccc(C(=O)N(CCC3CCCN3C)Cc3ccc4ccccc4c3)o1)C(C)(C)CCC2(C)C (stereo not drawn) [Compound 598]
Second: COc1ccc(C(NC(=O)c2ccc(Cc3cc4c(cc3C)C(C)(C)CCC4(C)C)o2)C2CC2)cc1 (stereo not drawn) [Compound 578]
The remaining activity at 10 µM of the first is lower: -4% for the first, 17% for the second.

Compared with `CCOC(CN(CCc1ccccc1)C(=O)c1ccc(Cc2cc3c(cc2C)C(C)(C)CCC3(C)C)o1)OCC` [Compound 689], `Cc1cc2c(cc1Cc1ccc(C(=O)N(C)C3CCN(C)CC3)o1)C(C)(C)CCC2(C)C` [Compound 548] is lower in remaining activity at 10 µM: 34% for the first, 12% for the second.

First: Cc1ccc(N2CCN(C(=O)c3ccc(Cc4cc5c(cc4C)C(C)(C)CCC5(C)C)o3)CC2C)cc1 (stereo not drawn) [Compound 702]
Second: COc1cccc(N2CCN(C(=O)c3ccc(Cc4cc5c(cc4C)C(C)(C)CCC5(C)C)o3)CC2C)c1 (stereo not drawn) [Compound 663]
The remaining activity at 10 µM of the first is higher: 28% for the first, 25% for the second.

Going from `COc1cc2c(cc1OC)CN(C(=O)c1ccc(Cc3cc4c(cc3C)C(C)(C)CCC4(C)C)o1)CC2` [Compound 693] to `Cc1ccc(N2CCN(C(=O)c3ccc(Cc4cc5c(cc4C)C(C)(C)CCC5(C)C)o3)CC2)c(C)c1` [Compound 565], the remaining activity at 10 µM falls from 55% to 48%.

Going from `Cc1cc2c(cc1Cc1ccc(C(=O)NCC3(O)CCCCC3)o1)C(C)(C)CCC2(C)C` [Compound 571] to `COC(=O)C1CCCN1C(=O)c1ccc(Cc2cc3c(cc2C)C(C)(C)CCC3(C)C)o1` (stereo not drawn) [Compound 704], the remaining activity at 10 µM falls from 36% to 4%.

Same assay, conditions: read-out: % Inhib. @ 10 uM mGnRH

Molecule `Cc1cc2c(cc1Cc1ccc(C(=O)N3CCC(O)(O)CC3)o1)C(C)(C)CCC2(C)C` has an inhibition at 10 µM of 22%.
